In ChEMBL document CHEMBL4330132, “5-Keto-3-cyano-2,4-diaminothiophenes as selective maternal embryonic leucine zipper kinase inhibitors” (Bioorg Med Chem Lett, 2019):

Assays:
[1] = molecular target: Ephrin type-B receptor 6 (Homo sapiens) (UniProt O15197); assay: Binding affinity to wild-type human partial length EPHB6 (Q634 to P948 residues) expressed in mammalian expression system assessed as residual binding level at 1 uM by Kinomescan method relative to control
[2] = molecular target: Dual specificity mitogen-activated protein kinase kinase 7 (Homo sapiens) (UniProt O14733); assay: Binding affinity to wild-type human full length MKK7 (M1 to R419 residues) expressed in mammalian expression system assessed as residual binding level at 1 uM by Kinomescan method relative to control
[3] = molecular target: Ephrin type-A receptor 4 (Homo sapiens) (UniProt P54764); assay: Binding affinity to wild-type human partial length EPHA4 (T601 to R897 residues) expressed in bacterial expression system assessed as residual binding level at 1 uM by Kinomescan method relative to control
Sequence of Ephrin type-A receptor 4 (Homo sapiens) (P54764 whole entry, the tested form may be a part): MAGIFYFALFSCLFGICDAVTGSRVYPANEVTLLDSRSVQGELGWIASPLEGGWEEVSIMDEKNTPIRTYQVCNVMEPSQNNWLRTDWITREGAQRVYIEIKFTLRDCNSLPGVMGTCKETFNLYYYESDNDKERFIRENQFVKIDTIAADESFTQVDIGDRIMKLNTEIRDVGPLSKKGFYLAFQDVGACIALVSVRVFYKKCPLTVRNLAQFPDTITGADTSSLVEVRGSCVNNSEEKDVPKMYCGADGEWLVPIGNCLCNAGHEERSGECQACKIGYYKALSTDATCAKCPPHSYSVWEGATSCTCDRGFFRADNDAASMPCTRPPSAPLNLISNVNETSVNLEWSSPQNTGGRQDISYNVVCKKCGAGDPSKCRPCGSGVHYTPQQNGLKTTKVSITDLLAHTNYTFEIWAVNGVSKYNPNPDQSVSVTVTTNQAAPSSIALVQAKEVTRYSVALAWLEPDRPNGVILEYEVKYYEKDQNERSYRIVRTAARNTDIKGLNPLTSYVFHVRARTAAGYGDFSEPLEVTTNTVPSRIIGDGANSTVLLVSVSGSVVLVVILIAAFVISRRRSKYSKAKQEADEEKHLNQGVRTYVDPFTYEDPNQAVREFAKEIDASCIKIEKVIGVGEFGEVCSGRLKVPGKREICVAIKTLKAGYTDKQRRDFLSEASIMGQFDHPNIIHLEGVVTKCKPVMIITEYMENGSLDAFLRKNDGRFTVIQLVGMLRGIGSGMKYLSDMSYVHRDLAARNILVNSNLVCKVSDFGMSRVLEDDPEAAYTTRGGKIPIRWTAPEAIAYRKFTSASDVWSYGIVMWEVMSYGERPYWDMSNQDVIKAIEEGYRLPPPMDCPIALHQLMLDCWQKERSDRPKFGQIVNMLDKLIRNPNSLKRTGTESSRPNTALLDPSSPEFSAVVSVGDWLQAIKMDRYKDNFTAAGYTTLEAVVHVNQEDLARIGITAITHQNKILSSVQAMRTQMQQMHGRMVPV

[4] = molecular target: Serine/threonine-protein kinase LATS1 (Homo sapiens) (UniProt O95835); assay: Binding affinity to wild-type human partial length LATS1 (Q678 to V1130 residues) expressed in bacterial expression system assessed as residual binding level at 1 uM by Kinomescan method relative to control
Sequence of Serine/threonine-protein kinase LATS1 (Homo sapiens) (O95835 whole entry, the tested form may be a part): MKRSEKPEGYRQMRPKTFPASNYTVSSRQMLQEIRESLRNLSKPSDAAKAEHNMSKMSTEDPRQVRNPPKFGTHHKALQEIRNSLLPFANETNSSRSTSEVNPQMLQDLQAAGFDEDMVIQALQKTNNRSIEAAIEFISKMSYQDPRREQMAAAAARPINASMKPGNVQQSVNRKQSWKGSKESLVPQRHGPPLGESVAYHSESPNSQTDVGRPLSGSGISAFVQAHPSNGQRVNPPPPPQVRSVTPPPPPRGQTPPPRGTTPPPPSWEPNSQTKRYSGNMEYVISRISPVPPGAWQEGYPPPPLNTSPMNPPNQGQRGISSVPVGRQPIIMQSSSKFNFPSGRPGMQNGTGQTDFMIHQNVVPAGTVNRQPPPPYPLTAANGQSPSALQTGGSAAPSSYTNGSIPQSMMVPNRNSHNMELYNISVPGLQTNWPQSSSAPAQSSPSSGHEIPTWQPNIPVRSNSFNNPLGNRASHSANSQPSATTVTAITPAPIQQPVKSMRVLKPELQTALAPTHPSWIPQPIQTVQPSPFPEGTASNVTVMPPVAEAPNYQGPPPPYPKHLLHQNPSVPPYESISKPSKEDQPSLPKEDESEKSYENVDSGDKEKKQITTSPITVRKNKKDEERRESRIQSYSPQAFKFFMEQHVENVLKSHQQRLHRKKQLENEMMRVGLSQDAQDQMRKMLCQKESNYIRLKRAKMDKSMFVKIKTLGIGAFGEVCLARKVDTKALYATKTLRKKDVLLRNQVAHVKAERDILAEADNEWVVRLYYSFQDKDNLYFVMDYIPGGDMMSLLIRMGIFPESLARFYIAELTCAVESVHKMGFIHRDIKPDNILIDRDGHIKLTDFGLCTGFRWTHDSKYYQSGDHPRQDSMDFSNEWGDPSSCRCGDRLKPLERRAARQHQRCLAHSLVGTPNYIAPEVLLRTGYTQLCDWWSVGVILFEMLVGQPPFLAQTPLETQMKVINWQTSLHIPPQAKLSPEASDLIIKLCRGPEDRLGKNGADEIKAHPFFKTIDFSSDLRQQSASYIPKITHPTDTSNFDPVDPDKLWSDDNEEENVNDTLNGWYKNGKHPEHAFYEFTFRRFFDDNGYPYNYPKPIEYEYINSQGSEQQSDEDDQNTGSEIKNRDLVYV

[5] = molecular target: Tyrosine-protein kinase receptor TYRO3 (Homo sapiens) (UniProt Q06418); assay: Binding affinity to wild-type human partial length TYRO3 (S497 to T814 residues) expressed in bacterial expression system assessed as residual binding level at 1 uM by Kinomescan method relative to control
[6] = molecular target: Dual specificity testis-specific protein kinase 1 (Homo sapiens) (UniProt Q15569); assay: Binding affinity to wild-type human full length TESK1 (R37 to S626 residues) expressed in bacterial expression system assessed as residual binding level at 1 uM by Kinomescan method relative to control
[7] = molecular target: Testis-specific serine/threonine-protein kinase 1 (Homo sapiens) (UniProt Q9BXA7); assay: Binding affinity to wild-type human full length TSSK1B (M1 to Q367 residues) expressed in bacterial expression system assessed as residual binding level at 1 uM by Kinomescan method relative to control
[8] = molecular target: cGMP-dependent protein kinase 2 (Homo sapiens) (UniProt Q13237); assay: Binding affinity to wild-type human partial length PRKG2 (S422 to F762 residues) expressed in mammalian expression system assessed as residual binding level at 1 uM by Kinomescan method relative to control
[9] = molecular target: Rho-associated protein kinase 2 (Homo sapiens) (UniProt O75116); assay: Binding affinity to wild-type human partial length ROCK2 (M1 to T431 residues) expressed in mammalian expression system assessed as residual binding level at 1 uM by Kinomescan method relative to control
[10] = molecular target: Serine/threonine-protein kinase 35 (Homo sapiens) (UniProt Q8TDR2); assay: Binding affinity to wild-type human partial length STK35 (G182 to A534 residues) expressed in bacterial expression system assessed as residual binding level at 1 uM by Kinomescan method relative to control
Sequence of Serine/threonine-protein kinase 35 (Homo sapiens) (Q8TDR2 whole entry, the tested form may be a part): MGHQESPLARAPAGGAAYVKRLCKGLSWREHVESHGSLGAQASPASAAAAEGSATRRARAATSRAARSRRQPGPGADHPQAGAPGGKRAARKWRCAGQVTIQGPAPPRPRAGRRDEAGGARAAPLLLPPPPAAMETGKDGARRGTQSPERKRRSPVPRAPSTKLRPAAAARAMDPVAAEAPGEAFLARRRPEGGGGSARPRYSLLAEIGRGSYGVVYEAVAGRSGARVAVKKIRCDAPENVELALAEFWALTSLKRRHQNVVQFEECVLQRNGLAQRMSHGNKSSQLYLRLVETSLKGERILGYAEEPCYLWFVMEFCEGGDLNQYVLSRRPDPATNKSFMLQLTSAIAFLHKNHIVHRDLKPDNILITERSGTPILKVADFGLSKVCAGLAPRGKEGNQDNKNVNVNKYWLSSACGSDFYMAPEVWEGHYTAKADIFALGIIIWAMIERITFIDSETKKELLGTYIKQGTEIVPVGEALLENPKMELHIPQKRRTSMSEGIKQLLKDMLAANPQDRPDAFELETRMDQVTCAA

[11] = molecular target: Leukocyte tyrosine kinase receptor (Homo sapiens) (UniProt P29376); assay: Binding affinity to wild-type human partial length LTK (P422 to S744 residues) expressed in bacterial expression system assessed as residual binding level at 1 uM by Kinomescan method relative to control
[12] = molecular target: Wee1-like protein kinase 2 (Homo sapiens) (UniProt P0C1S8); assay: Binding affinity to wild-type human partial length WEE2 (M204 to K492 residues) expressed in bacterial expression system assessed as residual binding level at 1 uM by Kinomescan method relative to control
[13] = molecular target: Mitogen-activated protein kinase 1 (Homo sapiens) (UniProt P28482); assay: Binding affinity to wild-type human full length ERK2 (M1 to S360 residues) expressed in bacterial expression system assessed as residual binding level at 1 uM by Kinomescan method relative to control
[14] = molecular target: Insulin receptor-related protein (Homo sapiens) (UniProt P14616); assay: Binding affinity to wild-type human partial length INSRR (R950 to E1278 residues) expressed in bacterial expression system assessed as residual binding level at 1 uM by Kinomescan method relative to control
[15] = molecular target: Tyrosine-protein kinase TXK (Homo sapiens) (UniProt P42681); assay: Binding affinity to wild-type human partial length TXK (L238 to W527 residues) expressed in bacterial expression system assessed as residual binding level at 1 uM by Kinomescan method relative to control
[16] = molecular target: Inhibitor of nuclear factor kappa-B kinase subunit epsilon (Homo sapiens) (UniProt Q14164); assay: Binding affinity to wild-type human full length IKK-epsilon (M1 to V716 residues) expressed in mammalian expression system assessed as residual binding level at 1 uM by Kinomescan method relative to control
Sequence of Inhibitor of nuclear factor kappa-B kinase subunit epsilon (Homo sapiens) (Q14164 whole entry, the tested form may be a part): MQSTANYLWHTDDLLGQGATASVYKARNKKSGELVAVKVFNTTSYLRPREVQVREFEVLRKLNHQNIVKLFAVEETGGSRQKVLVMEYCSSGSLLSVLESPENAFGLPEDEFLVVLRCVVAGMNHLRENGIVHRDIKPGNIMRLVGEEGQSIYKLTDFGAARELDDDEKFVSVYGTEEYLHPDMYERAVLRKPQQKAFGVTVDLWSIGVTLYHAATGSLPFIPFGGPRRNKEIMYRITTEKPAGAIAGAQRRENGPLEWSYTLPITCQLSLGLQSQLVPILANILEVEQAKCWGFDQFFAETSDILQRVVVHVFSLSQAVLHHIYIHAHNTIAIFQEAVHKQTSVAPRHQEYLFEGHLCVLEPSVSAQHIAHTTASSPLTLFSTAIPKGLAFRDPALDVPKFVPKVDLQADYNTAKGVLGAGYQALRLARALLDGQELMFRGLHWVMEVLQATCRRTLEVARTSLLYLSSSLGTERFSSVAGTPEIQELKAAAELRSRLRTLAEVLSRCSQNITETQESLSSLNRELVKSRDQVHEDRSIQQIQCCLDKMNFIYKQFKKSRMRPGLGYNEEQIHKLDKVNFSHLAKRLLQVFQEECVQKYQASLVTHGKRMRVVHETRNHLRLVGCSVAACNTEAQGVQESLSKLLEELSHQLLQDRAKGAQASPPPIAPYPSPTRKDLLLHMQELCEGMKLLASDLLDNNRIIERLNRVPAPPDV

[17] = molecular target: Misshapen-like kinase 1 (Homo sapiens) (UniProt Q8N4C8); assay: Binding affinity to wild-type human partial length MINK (M1 to K312 residues) expressed in mammalian expression system assessed as residual binding level at 1 uM by Kinomescan method relative to control
[18] = molecular target: Serine/threonine-protein kinase PLK4 (Homo sapiens) (UniProt O00444); assay: Binding affinity to wild-type human partial length PLK4 (M1 to S273 residues) expressed in mammalian expression system assessed as residual binding level at 1 uM by Kinomescan method relative to control
Sequence of Serine/threonine-protein kinase PLK4 (Homo sapiens) (O00444 whole entry, the tested form may be a part): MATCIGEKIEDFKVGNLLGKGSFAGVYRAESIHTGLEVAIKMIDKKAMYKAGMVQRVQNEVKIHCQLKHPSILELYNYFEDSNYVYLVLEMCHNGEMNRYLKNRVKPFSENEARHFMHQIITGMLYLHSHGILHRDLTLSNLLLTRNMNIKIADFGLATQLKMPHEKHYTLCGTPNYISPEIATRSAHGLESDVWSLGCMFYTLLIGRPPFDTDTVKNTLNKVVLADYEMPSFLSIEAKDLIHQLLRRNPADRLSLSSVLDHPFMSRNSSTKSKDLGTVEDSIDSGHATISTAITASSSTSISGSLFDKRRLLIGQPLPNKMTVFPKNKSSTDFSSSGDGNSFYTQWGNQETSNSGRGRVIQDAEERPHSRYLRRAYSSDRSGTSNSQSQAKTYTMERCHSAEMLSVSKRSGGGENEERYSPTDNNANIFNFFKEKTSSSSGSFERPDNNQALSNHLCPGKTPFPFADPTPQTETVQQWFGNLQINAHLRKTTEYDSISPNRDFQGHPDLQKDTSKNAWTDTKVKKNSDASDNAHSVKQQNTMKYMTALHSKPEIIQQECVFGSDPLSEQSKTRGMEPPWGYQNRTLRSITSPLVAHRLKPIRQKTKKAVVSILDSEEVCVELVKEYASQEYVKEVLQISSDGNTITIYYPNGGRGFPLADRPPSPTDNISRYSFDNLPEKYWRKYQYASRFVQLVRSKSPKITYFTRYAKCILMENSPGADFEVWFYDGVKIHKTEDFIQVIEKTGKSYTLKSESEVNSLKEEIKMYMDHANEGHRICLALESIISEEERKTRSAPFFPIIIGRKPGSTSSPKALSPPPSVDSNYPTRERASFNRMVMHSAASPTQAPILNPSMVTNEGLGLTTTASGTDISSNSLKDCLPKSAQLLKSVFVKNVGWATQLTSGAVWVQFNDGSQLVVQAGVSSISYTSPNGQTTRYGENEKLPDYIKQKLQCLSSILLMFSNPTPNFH

[19] = molecular target: Bone morphogenetic protein receptor type-1B (Homo sapiens) (UniProt O00238); assay: Binding affinity to wild-type human partial length BMPR1B (D178 to L502 residues) expressed in mammalian expression system assessed as residual binding level at 1 uM by Kinomescan method relative to control
[20] = molecular target: Serine/threonine-protein kinase ULK3 (Homo sapiens) (UniProt Q6PHR2); assay: Binding affinity to wild-type human partial length ULK3 (M1 to Q290 residues) expressed in mammalian expression system assessed as residual binding level at 1 uM by Kinomescan method relative to control
Sequence of Serine/threonine-protein kinase ULK3 (Homo sapiens) (Q6PHR2 whole entry, the tested form may be a part): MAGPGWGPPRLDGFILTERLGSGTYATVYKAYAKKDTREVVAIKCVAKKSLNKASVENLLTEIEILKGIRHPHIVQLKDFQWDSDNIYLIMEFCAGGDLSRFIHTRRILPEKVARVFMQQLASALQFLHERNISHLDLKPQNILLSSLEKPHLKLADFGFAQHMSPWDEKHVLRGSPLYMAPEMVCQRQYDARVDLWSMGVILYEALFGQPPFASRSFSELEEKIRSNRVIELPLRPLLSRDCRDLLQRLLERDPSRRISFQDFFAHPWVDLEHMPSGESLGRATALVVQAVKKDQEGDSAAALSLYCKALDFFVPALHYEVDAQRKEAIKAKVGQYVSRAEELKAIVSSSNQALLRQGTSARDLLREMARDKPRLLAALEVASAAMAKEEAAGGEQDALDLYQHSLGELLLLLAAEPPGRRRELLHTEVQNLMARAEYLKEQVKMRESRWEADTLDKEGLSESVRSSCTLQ

[21] = test system: Tyrosine-protein kinase ABL1 (Homo sapiens), P00519 [Q252H]; assay: Binding affinity to human phosphorylated ABL1 Q252H mutant expressed in mammalian expression system assessed as residual binding level at 1 uM by Kinomescan method relative to control
[22] = molecular target: Vascular endothelial growth factor receptor 2 (Homo sapiens) (UniProt P35968); assay: Binding affinity to wild-type human partial length VEGFR2 (R787 to P1253 residues) expressed in mammalian expression system assessed as residual binding level at 1 uM by Kinomescan method relative to control
[23] = molecular target: Eukaryotic translation initiation factor 2-alpha kinase 1 (Homo sapiens) (UniProt Q9BQI3); assay: Binding affinity to wild-type human partial length EIF2AK1 (Q147 to E603 residues) expressed in mammalian expression system assessed as residual binding level at 1 uM by Kinomescan method relative to control
[24] = test system: Proto-oncogene tyrosine-protein kinase receptor Ret (Homo sapiens), P07949 [V804L]; assay: Binding affinity to human partial length RET V804L mutant (E713 to D1014 residues) expressed in bacterial expression system assessed as residual binding level at 1 uM by Kinomescan method relative to control
[25] = molecular target: Tyrosine-protein kinase HCK (Homo sapiens) (UniProt P08631); assay: Binding affinity to wild-type human full length HCK (M22 to P526 residues) expressed in bacterial expression system assessed as residual binding level at 1 uM by Kinomescan method relative to control

CC(C)Nc1sc(C(=O)c2ccc(Cl)s2)c(N)c1C#N
Activity [1]: 100%
Activity [2]: 100%
Activity [3]: 93%
Activity [4]: 98%
Activity [5]: 92%
Activity [6]: 94%
Activity [7]: 100%
Activity [8]: 100%
Activity [9]: 100%
Activity [10]: 80%
Activity [11]: 100%
Activity [12]: 94%
Activity [13]: 100%
Activity [14]: 76%
Activity [15]: 87%
Activity [16]: 100%
Activity [17]: 55%
Activity [18]: 100%
Activity [19]: 94%
Activity [20]: 99%
Activity [21]: 100%
Activity [22]: 93%
Activity [23]: 100%
Activity [24]: 97%
Activity [25]: 90%
